According to US7741327B2 (Hoffmann-La Roche Inc., priority 2008, dated 2010):

Biological target: T1, Recombinant human liver GK1 (GST-GK) (Homo sapiens, UniProt P35557)
T1 construct: made in house; host or cells: E. coli
T1 sequence (P35557 1-466 isoform P35557-2): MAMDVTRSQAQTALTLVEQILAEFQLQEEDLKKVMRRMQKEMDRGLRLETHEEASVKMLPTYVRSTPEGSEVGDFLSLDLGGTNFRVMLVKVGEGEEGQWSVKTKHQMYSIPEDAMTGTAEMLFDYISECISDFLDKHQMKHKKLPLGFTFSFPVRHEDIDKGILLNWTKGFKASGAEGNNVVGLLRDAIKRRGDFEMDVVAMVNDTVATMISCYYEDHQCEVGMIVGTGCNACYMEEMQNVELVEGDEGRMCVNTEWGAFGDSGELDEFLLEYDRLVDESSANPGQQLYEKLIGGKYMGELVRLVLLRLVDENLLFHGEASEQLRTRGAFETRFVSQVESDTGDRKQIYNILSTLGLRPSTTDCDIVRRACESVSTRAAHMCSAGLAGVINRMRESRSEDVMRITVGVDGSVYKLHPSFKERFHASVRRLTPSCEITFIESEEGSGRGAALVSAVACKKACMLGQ
Assay: In vitro glucokinase activity (G6PDH-coupled NADH assay)
Type: biochemical
Settings: 30° C., 5 mM D-glucose, 10% DMSO
Procedure: Glucokinase In Vitro Assay Protocol: Glucokinase (GK) was assayed by coupling the production of glucose-6-phosphate to the generation of NADH with glucose-6-phosphate dehydrogenase (G6PDH, 0.75-1 kunits/mg; Boehringer Mannheim, Indianapolis, Ind.) from Leuconostoc mesenteroides as the coupling enzyme (Scheme 2).
Recombinant human liver GK1 was expressed in E. coli as a glutathione S-transferase fusion protein (GST-GK) [Liang et al, 1995] and was purified by chromatography over a glutathione-Sepharose 4B affinity column using the procedure provided by the manufacturer (Amersham Pharmacia Biotech, Piscataway, N.J.).
The assay was conducted at 30° C. in a flat bottom 96-well tissue culture plate from Costar (Cambridge, Mass.) with a final incubation volume of 120 μL. The incubation reaction contained the following: 25 mM Hepes buffer (pH 7.1), 25 mM KCl, 5 mM D-glucose, 1 mM ATP, 1.8 mM NAD, 2 mM MgCl2, 1 μM sorbitol-6-phosphate, 1 mM dithiothreitol, test drug or 10% dimethylsulfoxide, ˜7 units/ml G6PDH, and GK (see below). All organic reagents were >98% pure and were from Boehringer Mannheim with the exceptions of D-glucose and Hepes which were from Sigma Chemical Co, St Louis, Mo. Test compounds were dissolved in dimethylsulfoxide and were added to the incubation reaction minus GST-GK in a volume of 12 μL to yield a final dimethylsulfoxide concentration of 10%. This mix was pre-incubated in the temperature controlled chamber of a SPECTRAmax 250 microplate spectrophotometer (Molecular Devices Corporation, Sunnyvale, Calif.) for 10 min to allow temperature equilibrium and then the reaction was started by the addition of 20 μL GST-GK.
After addition of enzyme, the increase in optical density (OD) at 340 nm was monitored spectrophotometrically to determine the rate of change (OD340 per min). The GK activity (OD340/min) in control wells (10% DMSO minus GK activators) was compared with the activity in wells containing test GK activators, and the concentration of activator that produced a 50% increase in the activity of GK, i.e., the SC1.5, was calculated. The table below provides the in vitro glucokinase activity for the compounds in the Examples: […]

SMILES	SC1.5 (concentration of activator that produced a 50% increase in the activity of GK) [µM]
CC(C)(O)Cn1ccc(NC(=O)[C@H](CC2CCCCC2)N2CC(Oc3c(F)cccc3F)=CC2=O)n1 [Example 36, (S)-3-Cyclohexyl-2-[4-(2,6-difluoro-phenoxy)-2-oxo-2,5-dihydro-pyrrol-1-yl]-N-[1-(2-hydroxy-2-methyl-propyl)-1H-pyrazol-3-yl]-propionamide]	0.028
O=C(Nc1ccn(C[C@H](O)CO)n1)[C@H](CC1CCCCC1)N1CC(Oc2c(F)cccc2F)=CC1=O [Example 37, (S)-3-Cyclohexyl-2-[4-(2,6-difluoro-phenoxy)-2-oxo-2,5-dihydro-pyrrol-1-yl]-N-[1-((S)-2,3-dihydroxy-propyl)-1H-pyrazol-3-yl]-propionamide]	0.036
O=C(Nc1ccn(C[C@@H](O)CO)n1)[C@H](CC1CCCCC1)N1CC(Oc2c(F)cccc2F)=CC1=O [Example 38, (S)-3-Cyclohexyl-2-[4-(2,6-difluoro-phenoxy)-2-oxo-2,5-dihydro-pyrrol-1-yl]-N-[1-((R)-2,3-dihydroxy-propyl)-1H-pyrazol-3-yl]-propionamide]	0.027
COC(=O)c1ccc(NC(=O)[C@H](CC2CCCCC2)N2CC(Oc3c(F)cccc3F)=CC2=O)nc1 [Example 39, 6-{(S)-3-Cyclohexyl-2-[4-(2,6-difluoro-phenoxy)-2-oxo-2,5-dihydro-pyrrol-1-yl]-propionylamino}-nicotinic acid methyl ester]	0.025
COC(=O)c1ccc(NC(=O)C(CC2CCOCC2)N2CC(Oc3c(F)cccc3F)=CC2=O)nc1 (stereo not shown) [Example 40, 6-[2-[4-(2,6-difluoro-phenoxy)-2-oxo-2,5-dihydro-pyrrol-1-yl]-3-(tetrahydro-pyran-4-yl)-propionylamino]-nicotinic acid methyl ester]	0.19
COC(=O)c1ccc(NC(=O)[C@H](CC2CCOCC2)N2CC(Oc3c(F)cccc3F)=CC2=O)nc1 [Example 41, (S)-6-[2-[4-(2,6-difluoro-phenoxy)-2-oxo-2,5-dihydro-pyrrol-1-yl]-3-(tetrahydro-pyran-4-yl)-propionylamino]-nicotinic acid methyl ester]	0.071
CC(C)(O)Cn1ccc(NC(=O)C(CC2CCOCC2)N2CC(Oc3c(F)cccc3F)=CC2=O)n1 (stereo not shown) [Example 42, 2-[4-(2,6-Difluoro-phenoxy)-2-oxo-2,5-dihydro-pyrrol-1-yl]-N-[1-(2-hydroxy-2-methyl-propyl)-1H-pyrazol-3-yl]-3-(tetrahydro-pyran-4-yl)-propionamide]	0.148
O=C(Nc1ccn(C[C@@H](O)CO)n1)C(CC1CCOCC1)N1CC(Oc2c(F)cccc2F)=CC1=O (stereo partly drawn) [Example 44, 2-[4-(2,6-Difluoro-phenoxy)-2-oxo-2,5-dihydro-pyrrol-1-yl]-N-[1-((R)-2,3-dihydroxy-propyl)-1H-pyrazol-3-yl]-3-(tetrahydro-pyran-4-yl)-propionamide]	0.165
CC(C)C[C@@H](C(=O)Nc1ccn(CC(C)(C)O)n1)N1CC(Oc2c(F)cccc2F)=CC1=O [Example 45, (S)-2-[4-(2,6-difluoro-phenoxy)-2-oxo-2,5-dihydro-pyrrol-1-yl]-4-methyl-pentanoic acid [1-(2-hydroxy-2-methyl-propyl)-1H-pyrazol-3-yl]-amide]	0.198
COC(=O)c1ccc(NC(=O)[C@H](CC(C)C)N2CC(Oc3c(F)cccc3F)=CC2=O)nc1 [Example 46, 6-{(S)-2-[4-(2,6-difluoro-phenoxy)-2-oxo-2,5-dihydro-pyrrol-1-yl]-4-methyl-pentanoylamino}-nicotinic acid methyl ester]	0.097
COc1cccc(OC2=CC(=O)N(C(CC3CCOCC3)C(=O)Nc3ccn(CC(C)(C)O)n3)C2)c1Cl (stereo not shown) [Example 50, 2-[4-(2-Chloro-3-methoxy-phenoxy)-2-oxo-2,5-dihydro-pyrrol-1-yl]-N-[1-(2-hydroxy-2-methyl-propyl)-1H-pyrazol-3-yl]-3-(tetrahydro-pyran-4-yl)-propionamide]	0.033
COc1cccc(OC2=CC(=O)N([C@H](CC3CCOCC3)C(=O)Nc3ccn(CC(C)(C)O)n3)C2)c1Cl [Example 52, (R)-2-[4-(2-Chloro-3-methoxy-phenoxy)-2-oxo-2,5-dihydro-pyrrol-1-yl]-N-[1-(2-hydroxy-2-methyl-propyl)-1H-pyrazol-3-yl]-3-(tetrahydro-pyran-4-yl)-propionamide]	1.027
COc1cccc(OC2=CC(=O)N(C(CC3CCOCC3)C(=O)Nc3ccn(C[C@@H](O)CO)n3)C2)c1Cl (stereo partly drawn) [Example 53, 2-[4-(2-Chloro-3-methoxy-phenoxy)-2-oxo-2,5-dihydro-pyrrol-1-yl]-N-[1-((R)-2,3-dihydroxy-propyl)-1H-pyrazol-3-yl]-3-(tetrahydro-pyran-4-yl)-propionamide]	0.053
COc1cccc(OC2=CC(=O)N([C@@H](CC3CCCC3)C(=O)Nc3ccn(CC(C)(C)O)n3)C2)c1Cl [Example 54, (S)-2-[4-(2-chloro-3-methoxy-phenoxy)-2-oxo-2,5-dihydro-pyrrol-1-yl]-3-cyclopentyl-N-[1-(2-hydroxy-2-methyl-propyl)-1H-pyrazol-3-yl]-propionamide]	0.008
COc1cccc(OC2=CC(=O)N([C@@H](CC3CCCC3)C(=O)Nc3ccn(C[C@@H](O)CO)n3)C2)c1Cl [Example 55, (S)-2-[4-(2-Chloro-3-methoxy-phenoxy)-2-oxo-2,5-dihydro-pyrrol-1-yl]-3-cyclopentyl-N-[1-((R)-2,3-dihydroxy-propyl)-1H-pyrazol-3-yl]-propionamide]	0.007
COC1=CC(=O)N([C@@H](CC2CCCCC2)C(=O)Nc2ccn(CC(C)(C)O)n2)C1 [Example 56, (S)-3-Cyclohexyl-N-[1-(2-hydroxy-2-methyl-propyl)-1H-pyrazol-3-yl]-2-(4-methoxy-2-oxo-2,5-dihydro-pyrrol-1-yl)-propionamide]	4.985
COc1cccc(OC2=CC(=O)N([C@@H](CC3CCCCC3)C(=O)Nc3ccn(CC(C)(C)O)n3)C2)c1Cl [Example 57, (S)-2-[4-(2-Chloro-3-methoxy-phenoxy)-2-oxo-2,5-dihydro-pyrrol-1-yl]-3-cyclohexyl-N-[1-(2-hydroxy-2-methyl-propyl)-1H-pyrazol-3-yl]-propionamide]	0.012
CNC(=O)NC(=O)C(CC1CCCCC1)N1CC(Oc2cccc(OC)c2Cl)=CC1=O (stereo not shown) [Example 58, 1-{2-[4-(2-Chloro-3-methoxy-phenoxy)-2-oxo-2,5-dihydro-pyrrol-1-yl]-3-cyclohexyl-propionyl}-3-methyl-urea]	1.597
CC(C)(O)Cn1ccc(NC(=O)C(Cc2c(F)cccc2F)N2CC(Oc3c(F)cccc3F)=CC2=O)n1 (stereo not shown) [Example 59, 2-[4-(2,6-Difluoro-phenoxy)-2-oxo-2,5-dihydro-pyrrol-1-yl]-3-(2,6-difluoro-phenyl)-N-[1-(2-hydroxy-2-methyl-propyl)-1-H-pyrazol-3-yl]-propionamide]	1.082
